Our source for the IC50 values is patent US20040224958A1, “Pyridopyrimidinone derivatives for treatment of neurodegenerative disease” (priority 2000, published 2004).

Structures are written as SMILES.

One assay concerns the target cdc2/cyclinB (Homo sapiens, UniProt P06493). The assay can be described thus: Cyclin-Dependent Kinase Assay cdc2/cyclinB.
The target in the next assay is cdk2/cyclinA (Homo sapiens, UniProt P24941). The assay is described as follows: Cyclin-Dependent Kinase Assay cdk2/cyclinA. The conditions noted are these: cdk2/A IC50.
The next assay concerns the target cdk2/cyclinE (Homo sapiens, UniProt P24941). The assay can be described thus: Cyclin-Dependent Kinase Assay cdk2/cyclinE. As to conditions: cdk2/E IC50.
The target of the next assay is Cdk5/p25 (Homo sapiens, UniProt Q00535). The assay is described as follows: Cyclin-Dependent Kinase 5 High Throughput Screening (cdk5-HTS) Assay. The format is biochemical. The conditions noted are these: high throughput screen. Summed up:
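Cdk5/p25 (1.0 μg/mL) phosphorylates GST-RbCOOH (20 μg/mL) in 50 mM Tris pH 7.4 with 10 mM MgCl2 and 20 μM ATP spiked with [γ33P]ATP, 30 min at room temperature. After EDTA stop, substrate captured on glutathione-coated plates; 33P incorporation counted by scintillation; IC50 determined.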

A further assay has as its target cdk4/D (Homo sapiens, UniProt P11802). The assay can be described thus: Cyclin-Dependent Kinase 4 (cdk4) Assay. The conditions noted are these: read-out: cdk4/D IC50. The format is biochemical.

Sequence of cdk4/D (P11802 whole entry): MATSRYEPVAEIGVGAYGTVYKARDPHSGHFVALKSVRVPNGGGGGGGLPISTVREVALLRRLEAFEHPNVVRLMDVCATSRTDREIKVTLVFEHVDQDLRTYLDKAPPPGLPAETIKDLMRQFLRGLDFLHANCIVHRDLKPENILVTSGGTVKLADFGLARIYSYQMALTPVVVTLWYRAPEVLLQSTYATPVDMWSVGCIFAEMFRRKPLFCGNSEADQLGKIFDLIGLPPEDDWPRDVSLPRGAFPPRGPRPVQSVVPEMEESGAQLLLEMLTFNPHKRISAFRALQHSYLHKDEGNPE
Sequence of cdk4/D (P24385 whole entry, further chain): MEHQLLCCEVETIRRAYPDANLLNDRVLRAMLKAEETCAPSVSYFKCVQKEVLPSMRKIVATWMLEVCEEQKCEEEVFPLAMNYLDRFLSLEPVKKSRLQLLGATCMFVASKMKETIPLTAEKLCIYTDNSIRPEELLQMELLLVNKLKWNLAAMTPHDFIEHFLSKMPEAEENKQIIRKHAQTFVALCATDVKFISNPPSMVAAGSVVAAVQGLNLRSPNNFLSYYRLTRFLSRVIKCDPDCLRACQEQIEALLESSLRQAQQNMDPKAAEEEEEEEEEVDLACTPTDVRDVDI
Sequence of cdc2/cyclinB (P06493 whole entry): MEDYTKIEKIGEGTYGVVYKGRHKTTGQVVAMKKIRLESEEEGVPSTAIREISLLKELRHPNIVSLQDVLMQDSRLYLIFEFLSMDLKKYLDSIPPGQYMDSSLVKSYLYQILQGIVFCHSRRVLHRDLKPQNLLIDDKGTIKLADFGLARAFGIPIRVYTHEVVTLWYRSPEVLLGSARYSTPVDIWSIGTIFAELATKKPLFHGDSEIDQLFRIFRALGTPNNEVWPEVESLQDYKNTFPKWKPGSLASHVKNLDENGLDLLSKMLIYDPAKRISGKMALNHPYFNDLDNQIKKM
Sequence of cdc2/cyclinB (P14635 whole entry, further chain): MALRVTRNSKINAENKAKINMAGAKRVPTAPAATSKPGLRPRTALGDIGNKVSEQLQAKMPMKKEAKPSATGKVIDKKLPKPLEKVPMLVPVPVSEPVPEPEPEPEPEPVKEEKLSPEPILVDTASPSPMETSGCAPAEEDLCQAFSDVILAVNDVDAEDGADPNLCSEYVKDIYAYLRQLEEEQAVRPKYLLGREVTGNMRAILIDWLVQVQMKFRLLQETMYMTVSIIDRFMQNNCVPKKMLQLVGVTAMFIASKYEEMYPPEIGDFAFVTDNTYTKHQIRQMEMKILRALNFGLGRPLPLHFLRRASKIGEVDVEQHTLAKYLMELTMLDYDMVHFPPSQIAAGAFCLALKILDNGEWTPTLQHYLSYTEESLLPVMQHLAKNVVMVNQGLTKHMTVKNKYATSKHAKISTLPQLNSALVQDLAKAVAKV
Protocol for cdc2/cyclinB: Cyclin-Dependent Kinase Assays (cdk2/cyclinE, cdk2/cyclinA, cdc2/cyclinB)
All components except the ATP were added to the wells, and the plate was placed on a plate mixer for 2 minutes. The reaction was begun by addition of [^32P]ATP, and the plate was incubated at 25° C. for 15 minutes. The reaction was terminated by addition of 0.1 mL of 20% TCA. The plate was kept at 4° C. for at least 1 hour to allow the substrate to precipitate. The wells were then washed five times with 0.2 mL of 10% TCA and ^32p incorporation determined with a beta plate counter (Wallac Inc., Gaithersburg, Md.).

As for `CCCn1c(=O)ccc2cnc(Nc3ccc(C)c(Cl)c3)nc21` [Example 347, 2-(3-Chloro-4-methyl-phenylamino)-8-propyl-8H-pyrido[2,3-d]pyrimidin-7-one], the IC50 on cdc2/cyclinB came to 140 nM; on cdk2/cyclinA, 580 nM; against cdk2/cyclinE, 120 nM; at Cdk5/p25 it was 35 nM; on cdk4/D it was 58 nM.

With `CCCn1c(=O)ccc2cnc(Nc3cccc(S(N)(=O)=O)c3)nc21` [Example 348, 3-(7-Oxo-8-propyl-7,8-dihydro-pyrido[2,3-d]pyrimidin-2-ylamino)-benzenesulfonamide], the IC50 at cdc2/cyclinB was 62 nM; at cdk2/cyclinA it was 170 nM; on cdk2/cyclinE, 49 nM; against Cdk5/p25, 13 nM; on cdk4/D, 14 nM.

As to `CCCn1c(=O)ccc2cnc(Nc3ccc(F)c([N+](=O)[O-])c3)nc21` [Example 351, 2-(4-Fluoro-3-nitro-phenylamino)-8-propyl-8H-pyrido[2,3-d]pyrimidin-7-one], the IC50 is 700 nM against cdc2/cyclinB; 1300 nM against cdk2/cyclinA; 560 nM at cdk2/cyclinE; 310 nM against Cdk5/p25; 1200 nM at cdk4/D.

`CCCn1c(=O)ccc2cnc(Nc3ccc(O)c(C)c3)nc21` [Example 354, 2-(4-Hydroxy-3-methyl-phenylamino)-8-propyl-8H-pyrido[2,3-d]pyrimidin-7-one]: the IC50 worked out at 1600 nM against cdc2/cyclinB; 1100 nM at cdk2/cyclinA; 1200 nM at cdk2/cyclinE; 770 nM at Cdk5/p25; 910 nM on cdk4/D.

As to `CCCn1c(=O)ccc2cnc(Nc3ccc4c(c3)C(C)C(C)N4)nc21` (centres unmarked) [Example 356, 2-(2,3-Dimethyl-2,3-dihydro-1H-indol-5-ylamino)-8-propyl-8H-pyrido[2,3-d]pyrimidin-7-one], the IC50 at cdc2/cyclinB came to 410 nM; against cdk2/cyclinA it was 470 nM; against cdk2/cyclinE it was 510 nM; on Cdk5/p25, 61 nM; at cdk4/D it was 290 nM.

With `CCCn1c(=O)ccc2cnc(Nc3ccc4c(c3)CCN4)nc21` [Example 357, 2-(2,3-Dihydro-1H-indol-5-ylamino)-8-propyl-8H-pyrido[2,3-d]pyrimidin-7-one], the IC50 came to 2100 nM against cdc2/cyclinB; 1600 nM on cdk2/cyclinA; 700 nM against cdk2/cyclinE; 290 nM against Cdk5/p25; 360 nM at cdk4/D.

In the case of `CCCn1c(=O)ccc2cnc(Nc3ccc4cn[nH]c4c3)nc21` [Example 358, 2-(1H-Indazol-6-ylamino)-8-propyl-8H-pyrido[2,3-d]pyrimidin-7-one], the IC50 against cdc2/cyclinB stood at 160 nM; on cdk2/cyclinA it was 83 nM; against cdk2/cyclinE, 180 nM; against Cdk5/p25 it was 90 nM; on cdk4/D, 300 nM.

With `CCCn1c(=O)ccc2cnc(Nc3cc(F)c(F)c(F)c3)nc21` [Example 359, 8-Propyl-2-(3,4,5-trifluoro-phenylamino)-8H-pyrido[2,3-d]pyrimidin-7-one], the IC50 worked out at 390 nM against cdc2/cyclinB; 430 nM against cdk2/cyclinA; 450 nM against cdk2/cyclinE; 180 nM at Cdk5/p25; 1800 nM at cdk4/D.

Consider `CCCn1c(=O)ccc2cnc(Nc3ccc(Br)c(C)c3)nc21` [Example 360, 2-(4-Bromo-3-methyl-phenylamino)-8-propyl-8H-pyrido[2,3-d]pyrimidin-7-one], for which the IC50 was 340 nM against cdc2/cyclinB; 1000 nM at cdk2/cyclinA; 990 nM against cdk2/cyclinE; 86 nM at Cdk5/p25; 390 nM at cdk4/D.

Regarding `CCCn1c(=O)ccc2cnc(Nc3ccc(C(F)(F)F)cc3)nc21` [Example 361, 8-Propyl-2-(4-trifluoromethyl-phenylamino)-8H-pyrido[2,3-d]pyrimidin-7-one], the IC50 is 180 nM against cdc2/cyclinB; 310 nM on cdk2/cyclinA; 440 nM on cdk2/cyclinE; 150 nM at Cdk5/p25; 350 nM at cdk4/D.
